Consider one compound from patent publication US8765181B2, “Nano anticancer micelles of vinca alkaloids entrapped in polyethylene glycolylated phospholipids” (Beijing Diacrid Medical Technology Co., Ltd, priority 2005, dated 2014).

In this assay the test system is Lewis lung cancer cells. In words: Tumor growth inhibition assay in vivo of vinorelbine micellar preparation. On the set-up: species or system Balb/c mice. Conditions: for Volume of tumor (mm^3): 5 mg/kg iv on the 1st, 8th and 15th day. Here is the method: Fresh Lewis lung cancer cells (ATTC, CRL-1642) were inoculated subcutaneously into the axillary region of right forelimb of Balb/c mice (1×10^7/ml, 0.2 ml/mice). The mice (17-19 g, female) bearing tumor were then randomly divided into three groups, i.e. control group, free vinorelbine group (F-VNR) and vinorelbine micelle group (M-VNR), 6 mice each group. Administration was carried out on the next day to the inoculation. The doses of both F-VNR and M-VNR were 5 mg/kg (drug concentration: 0.5 mg/ml), iv volume 0.1 ml/10 g body weight, and the dose of the control group was iv 0.1 ml/10 g body weight of physiological saline. Dosing was performed once a week and continued for three weeks (dosing on the 1st, 8th and 15th day, respectively), wherein the length (a) and width (b) of the tumors were measured with vernier caliper on the 7th, 10th, 14th, 17th, and 21th day, respectively. The volume of the tumor was calculated according the formula V=a×b^2/2. […] The experiment results were shown in FIG. 5 as well as following table.

Structures are written as SMILES.

`CCC1=C[C@@H]2CN(C1)Cc1c([nH]c3ccccc13)[C@@](C(=O)OC)(c1cc3c(cc1OC)N(C)[C@H]1[C@@](O)(C(=O)OC)[C@H](OC(C)=O)[C@]4(CC)C=CCN5CC[C@]31[C@@H]54)C2` [F-VNR, vinorelbine]: where the note is “5 mg/kg iv once a week for three weeks”, the “effect on growth of Lewis lung cancer tumor (in words)” value was “almost ineffective”. The “Volume of tumor (mm^3)” value is given as 217 ± 94.5 mm^3 (7 days); 810.3 ± 407.6 mm^3 (10 days); 1694.3 ± 789.1 mm^3 (14 days); 2460.1 ± 1367.1 mm^3 (17 days); 5163 ± 2623.8 mm^3 (21 days).
